Structures are written as SMILES. Active and inactive are the calls of the source. No cut-off for these calls is given here.

For assay [1], the target named is Histone deacetylase. Briefly: Inhibition of HDAC activity in human NB4 cells assessed as acetylation of histone H3 after 24 hrs by Western blot analysis. The following applies: nb-4. Type of assay: cell-based. (In general: Immunoblotting shows a protein as a band on a membrane.)
Assay [2] deals with T1, Histone deacetylase (Homo sapiens) (UniProt Q13547+O15379+Q9UBN7+Q92769+Q9UQL6+Q8WUI4+Q9BY41+Q96DB2+P56524+Q9UKV0+Q969S8). Briefly: Inhibition of HDAC activity in human NB4 cells assessed as maximum acetylation of histone H3 at EC50 concentration after 24 hrs by Western blot analysis relative to control. The class given is cell-based. The following applies: NB-4.
Assay [3] deals with Histone deacetylase. Briefly: Inhibition of HDAC activity in human NB4 cells assessed as acetylation of histone H4 after 24 hrs by Western blot analysis. Type of assay: cell-based. The following applies: nb-4.
Assay [4] concerns the target T1, Histone deacetylase (Homo sapiens). Briefly: Inhibition of HDAC activity in human NB4 cells assessed as maximum acetylation of histone H4 at EC50 concentration after 24 hrs by Western blot analysis relative to control. Type of assay: cell-based. The following applies: NB-4.
For another assay, the target named is Tubulin. Briefly: Inhibition of HDAC activity in human NB4 cells assessed as acetylated tubulin after 24 hrs by Western blot analysis. The class given is cell-based. The following applies: nb-4.
The target in assay [5] is T1, Histone deacetylase (Homo sapiens). Briefly: Inhibition of HDAC activity in human NB4 cells assessed as maximum acetylated tubulin at EC50 concentration after 24 hrs by Western blot analysis relative to control. Type of assay: cell-based. The following applies: NB-4.
In assay [6] the test system is HCT-116. Briefly: Antiproliferative activity against human HCT116 cells after 24 hrs by alamar blue assay. Type of assay: functional, cell-based. The following applies: HCT-116, 24 h. In general terms: Resazurin is reduced to fluorescent resorufin, in cell work by metabolically active cells.
Assay [7] has as its system NB-4. Briefly: Antiproliferative activity against human NB4 cells after 24 hrs by alamar blue assay. The class given is functional, cell-based. The following applies: NB-4, 24 h.
In assay [8] the test system is NB-4. Briefly: Potentiation of all-trans retinoic acid-induced human NB4 cells differentiation after 72 hrs by NBT-reductase activity assay relative HDAC inhibitor alone. Type of assay: functional.
Assay [9] relates to HCT-116. Briefly: Antitumor activity against human HCT116 cells xenografted in athymic nude mouse assessed as decrease in tumor volume at 12.5 mg/kg, iv administered once daily for 5 days per week by caliper measurement. The class given is functional, organism-based. The arrangement: dose 12.5 mg/kg. (Xenograft models place foreign cells or tissue in a host animal.)
The test system of assay [10] is HCT-116. Briefly: Antitumor activity against human HCT116 cells xenografted in athymic nude mouse assessed as decrease in tumor volume at 6.2 mg/kg, iv administered once daily for 5 days per week by caliper measurement. The class given is functional, organism-based. The arrangement: dose 6.2 mg/kg.
A short description of assay [11]: Ratio of IC50 for HDAC2 to IC50 for HDAC6.
Assay [12] deals with HCT-116. Briefly: Antitumor activity against human HCT116 cells xenografted in athymic nude mouse assessed as decrease in tumor volume at 25 mg/kg, iv administered once daily for 5 days per week by caliper measurement. The class given is functional, organism-based. The arrangement: dose 25 mg/kg.

As a reminder, the EC50 is the concentration that produces a half-maximal response. One may read the IC50 as the concentration needed to halve the response being measured. A low value points to greater potency in that assay. Take `O=C(CCCCCN1C(=O)c2ccccc2Nc2ccc(Cl)cc21)NO`: the EC50 was 840 nM on Histone deacetylase [1], 860 nM at Histone deacetylase [3] and 320 nM on Tubulin. Besides, the Ratio in assay [2] was 31; in assay [4], 78; in assay [5], 413; in the assay on NB-4 [8], 1. For the same compound, the half-maximal inhibitory concentration (IC50) with HCT-116 [6] was determined as 450 nM; in the assay with NB-4 [7] it was 290 nM.
In the case of `COc1ccc2c(c1)N(CCCCCC(=O)NO)C(=O)c1ccccc1S2(=O)=O`, the EC50 at Histone deacetylase [1] stood at 30 nM; at Histone deacetylase [3], 90 nM; on Tubulin, 50 nM. For the same compound, the Ratio stood at 4740 in assay [2], 1460 in assay [4], 30600 in [5] and 79 in the assay on NB-4 [8]. Also, the IC50 in the assay on HCT-116 [6] worked out at 40 nM; in the assay with NB-4 [7], 20 nM.
Take `O=C(CCCCCN1C(=O)c2ccccc2Nc2ccccc21)NO`: the EC50 at Histone deacetylase [1] amounted to 1300 nM; at Histone deacetylase [3] it was 1530 nM; on Tubulin, 1170 nM. Further, the Ratio in [2] is 188; in [4], 126; in assay [5], 402; in the assay with NB-4 [8] it was 6. Moreover, the figures for the half-maximal inhibitory concentration (IC50) in the assay with HCT-116 [6] and in the assay on NB-4 [7] were > 10000 nM and 730 nM, respectively.
For the compound `O=C(CCCCCN1C(=O)c2ccccc2Oc2ccc(Cl)cc21)NO`, the 50% effective concentration (EC50) came out at 380 nM at Histone deacetylase [1], 530 nM at Histone deacetylase [3] and 440 nM on Tubulin. Besides, the Ratio in assay [2] amounted to 3; in [4] it was 9; in assay [5], 932; in the assay on NB-4 [8], 1. Also, the half-inhibitory concentration (IC50) in the assay with HCT-116 [6] was found to be 200 nM; with NB-4 [7] it was 160 nM.
Take `O=C(CCCCCN1C(=O)c2ccccc2S(=O)(=O)c2ccc(Cl)cc21)NO`: the figures for the half-maximal effective concentration (EC50) on Histone deacetylase [1], on Histone deacetylase [3] and at Tubulin were 30 nM, 60 nM and 40 nM, respectively. Further, the Ratio came to 2110 in assay [2], 795 in [4], 8850 in [5] and 56 in the assay on NB-4 [8]. The values for the 50% inhibitory concentration (IC50) in the assay with HCT-116 [6] and in the assay with NB-4 [7] were 30 nM and 20 nM, respectively.
Take `COc1ccc2c(c1)N(CCCCCC(=O)NO)C(=O)c1ccccc1N2`: the EC50 on Histone deacetylase [1] worked out at 390 nM; at Histone deacetylase [3], 280 nM; at Tubulin, 250 nM. The Ratio is 7 in [2], 244 in [4], 199 in [5] and 1 with NB-4 [8]. The IC50 was 360 nM in the assay with HCT-116 [6] and 140 nM with NB-4 [7].
Take `O=C(CCCCCN1C(=O)c2ccccc2Sc2ccc(Cl)cc21)NO`: the 50% effective concentration (EC50) was determined as 340 nM at Histone deacetylase [1], 360 nM on Histone deacetylase [3] and 150 nM at Tubulin. Moreover, the Ratio is 200 in assay [2], 2330 in assay [4], 13200 in [5] and 31 with NB-4 [8]. Moreover, the IC50 in the assay with HCT-116 [6] is 60 nM; with NB-4 [7], 30 nM. Further, in the assay on HCT-116 [9], the inhibition result is “Active”. For the same compound, in the assay on HCT-116 [10], the inhibition entry is “inactive”.
`O=C(CCCCCN1C(=O)c2ccccc2Oc2ccccc21)NO`: the EC50 at Histone deacetylase [1] worked out at 6240 nM; at Histone deacetylase [3] it was 3270 nM; on Tubulin, 290 nM. Further, the Ratio turned out to be 15 in assay [2], 54 in assay [4], 2630 in assay [5] and 2 in the assay on NB-4 [8]. In addition, in assay [11], the Ratio IC50 worked out at 61. The IC50 in the assay with HCT-116 [6] turned out to be 640 nM; with NB-4 [7], 610 nM.
For the compound `COc1ccc2c(c1)N(CCCCCC(=O)NO)C(=O)c1ccccc1S2`, the EC50 at Histone deacetylase [1] came to 190 nM; at Histone deacetylase [3] it was 150 nM; on Tubulin it was 130 nM. The Ratio in [2] was 12; in assay [4], 28; in [5] it was 47; in the assay on NB-4 [8] it was 16. Also, the concentration for half-maximal inhibition (IC50) with HCT-116 [6] stood at 90 nM; in the assay on NB-4 [7], 30 nM. Further, the inhibition entry in the assay on HCT-116 [12] was “Active”.
As to `COc1ccc2c(c1)N(CCCCCC(=O)NO)C(=O)c1ccccc1O2`, the EC50 came to 200 nM at Histone deacetylase [1], 320 nM at Histone deacetylase [3] and 90 nM at Tubulin. Also, the Ratio in assay [2] worked out at 61; in assay [4] it was 206; in [5] it was 1780; in the assay on NB-4 [8] it was 7. Further, the half-maximal inhibitory concentration (IC50) in the assay on HCT-116 [6] amounted to 310 nM; with NB-4 [7], 140 nM.
Regarding `CN1c2ccccc2C(=O)N(CCCCCC(=O)NO)c2ccccc21`, the half-maximal effective concentration (EC50) on Histone deacetylase [1] turned out to be 2650 nM; at Histone deacetylase [3], 2950 nM; on Tubulin it was 2740 nM. The Ratio in assay [2] came to 10; in assay [4], 14; in assay [5], 40; in the assay on NB-4 [8] it was 13. Further, the IC50 was found to be 8100 nM in the assay on HCT-116 [6] and 2460 nM in the assay on NB-4 [7].
Turning to `O=C(CCCCCN1C(=O)c2ccccc2Sc2ccccc21)NO`, the EC50 at Histone deacetylase [1] was 460 nM; on Histone deacetylase [3], 430 nM; on Tubulin, 370 nM. For the same compound, the Ratio in assay [2] was 190; in assay [4], 89; in assay [5], 2000; in the assay on NB-4 [8], 5. Moreover, the half-inhibitory concentration (IC50) with HCT-116 [6] was 390 nM; with NB-4 [7] it was 190 nM.
With `O=C(CCCCCN1C(=O)c2ccccc2S(=O)(=O)c2ccccc21)NO`, the EC50 is 500 nM on Histone deacetylase [1], 720 nM at Histone deacetylase [3] and 50 nM at Tubulin. Further, the Ratio in [2] was determined as 342; in assay [4], 336; in assay [5] it was 10700; in the assay with NB-4 [8] it was 14. Also, the Ratio IC50 in assay [11] came to 48. The 50% inhibitory concentration (IC50) in the assay with HCT-116 [6] amounted to 150 nM; with NB-4 [7], 120 nM.
